Among the data in US9475775B2, “Benzazepine dicarboxamide compounds” (Hoffmann-La Roche Inc., priority 2015, dated 2016) are EC50 values, retold here.

SMILES strings stand for the structures. Bounds are passed on as bounds.

One experiment addresses human TLR8 (Homo sapiens (Human), UniProt Q9NR97). Nature of the experiment: HEK-Blue human TLR8 cells, NF-κB SEAP reporter assay. The class given is cell-based. The conditions noted are these: stimulation for 20 hours. From the text:
(§1) For TLR8 and TLR7 activity testing, HEK-Blue human TLR8 or TLR7 cells (Invivogen, San Diego, Calif., USA) are used, respectively. These cells are designed for studying the stimulation of human TLR8 or TLR7 by monitoring the activation of NF-κB. A SEAP (secreted embryonic alkaline phosphatase) reporter gene is placed under the control of the IFN-b minimal promoter fused to five NF-κB and AP-1-binding sites. Therefore the reporter expression is regulated by the NF-κB promoter upon stimulation of human TLR8 or TLR7 for 20 hours. The cell culture supernatant SEAP reporter activity was determined using Quanti Blue kit (Invivogen, San Diego, Ca, USA) at a wavelength of 640 nm, a detection medium that turns purple/blue in the presence of alkaline phosphatase. EC50 values were determined using Activity Base analysis (ID Business Solution, Limited).
On the technique in general: A reporter such as luciferase makes a cellular process visible.

The target in a further experiment is human TLR7 (Homo sapiens (Human), UniProt Q9NYK1). Nature of the experiment: HEK-Blue human TLR7 cells, NF-κB SEAP reporter assay. The class given is cell-based. The conditions noted are these: stimulation for 20 hours.
Sequence of human TLR7 (Q9NYK1 27-1049): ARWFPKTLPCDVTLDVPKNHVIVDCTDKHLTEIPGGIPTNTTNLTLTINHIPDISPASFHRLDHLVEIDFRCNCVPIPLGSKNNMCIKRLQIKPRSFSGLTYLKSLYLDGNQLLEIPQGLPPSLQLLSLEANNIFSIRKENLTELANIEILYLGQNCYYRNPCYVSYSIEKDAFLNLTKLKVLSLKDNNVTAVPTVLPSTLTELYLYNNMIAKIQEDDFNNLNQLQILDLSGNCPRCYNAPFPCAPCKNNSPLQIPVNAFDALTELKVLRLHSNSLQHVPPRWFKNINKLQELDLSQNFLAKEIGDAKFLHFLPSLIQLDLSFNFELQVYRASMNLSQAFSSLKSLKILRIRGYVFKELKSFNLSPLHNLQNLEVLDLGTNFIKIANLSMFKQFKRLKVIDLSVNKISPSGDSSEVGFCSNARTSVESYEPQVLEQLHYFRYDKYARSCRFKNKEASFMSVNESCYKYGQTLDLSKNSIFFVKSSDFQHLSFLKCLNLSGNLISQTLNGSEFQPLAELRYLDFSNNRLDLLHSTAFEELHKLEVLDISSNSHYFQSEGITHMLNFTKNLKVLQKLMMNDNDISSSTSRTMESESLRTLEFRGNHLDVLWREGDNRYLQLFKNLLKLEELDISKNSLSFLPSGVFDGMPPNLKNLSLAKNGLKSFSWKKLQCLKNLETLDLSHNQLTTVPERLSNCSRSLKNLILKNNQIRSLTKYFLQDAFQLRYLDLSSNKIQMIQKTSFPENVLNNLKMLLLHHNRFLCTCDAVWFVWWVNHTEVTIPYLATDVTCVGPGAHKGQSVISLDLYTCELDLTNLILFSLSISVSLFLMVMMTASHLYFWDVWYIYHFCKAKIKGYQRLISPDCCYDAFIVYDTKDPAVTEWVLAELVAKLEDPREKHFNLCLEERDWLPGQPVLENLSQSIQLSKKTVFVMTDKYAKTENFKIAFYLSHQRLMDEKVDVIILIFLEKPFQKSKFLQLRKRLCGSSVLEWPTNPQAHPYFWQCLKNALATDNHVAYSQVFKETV
Description: as §1

Sequence of human TLR8 (Q9NR97 27-1041): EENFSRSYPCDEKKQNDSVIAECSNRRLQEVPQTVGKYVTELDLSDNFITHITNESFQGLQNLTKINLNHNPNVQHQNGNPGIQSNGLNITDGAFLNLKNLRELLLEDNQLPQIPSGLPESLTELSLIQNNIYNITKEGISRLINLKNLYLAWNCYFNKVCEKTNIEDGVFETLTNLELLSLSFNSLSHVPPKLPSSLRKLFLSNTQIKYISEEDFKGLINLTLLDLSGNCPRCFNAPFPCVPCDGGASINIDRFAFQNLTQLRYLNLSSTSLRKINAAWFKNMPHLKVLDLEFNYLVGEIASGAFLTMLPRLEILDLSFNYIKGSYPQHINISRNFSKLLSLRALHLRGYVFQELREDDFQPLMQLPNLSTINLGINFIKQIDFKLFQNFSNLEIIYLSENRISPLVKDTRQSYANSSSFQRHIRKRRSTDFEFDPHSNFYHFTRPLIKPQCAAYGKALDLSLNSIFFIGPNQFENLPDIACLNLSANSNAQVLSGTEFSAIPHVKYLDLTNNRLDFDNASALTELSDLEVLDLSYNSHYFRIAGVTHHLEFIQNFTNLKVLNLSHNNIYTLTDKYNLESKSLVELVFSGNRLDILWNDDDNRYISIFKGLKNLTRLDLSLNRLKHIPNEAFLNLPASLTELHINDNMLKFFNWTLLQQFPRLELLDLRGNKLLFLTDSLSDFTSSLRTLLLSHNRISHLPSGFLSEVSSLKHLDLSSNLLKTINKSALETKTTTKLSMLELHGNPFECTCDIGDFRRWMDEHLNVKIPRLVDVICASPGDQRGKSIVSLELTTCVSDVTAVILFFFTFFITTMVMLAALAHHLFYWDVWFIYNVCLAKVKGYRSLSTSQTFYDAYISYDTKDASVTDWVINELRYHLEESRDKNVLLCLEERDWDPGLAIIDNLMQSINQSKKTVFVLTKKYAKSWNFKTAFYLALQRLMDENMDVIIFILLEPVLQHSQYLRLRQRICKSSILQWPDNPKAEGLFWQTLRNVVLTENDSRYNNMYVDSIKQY

`CCCN(CCC)C(=O)C1=Cc2ccc(C(=O)Nc3cccnc3)cc2N=C(N)C1` [Example 1, 2-Amino-N4,N4-dipropyl-N8-(3-pyridyl)-3H-1-benzazepine-4,8-dicarboxamide]: the EC50 (in general, the concentration at which the effect is half-maximal) at human TLR8 is 1 nM; at human TLR7, 80800 nM.

As for `CCCN(CCC)C(=O)C1=Cc2ccc(C(=O)Nc3cncnc3)cc2N=C(N)C1` [Example 2, 2-Amino-N4,N4-dipropyl-N8-pyrimidin-5-yl-3H-1-benzazepine-4,8-dicarboxamide], the EC50 on human TLR8 was 1 nM; at human TLR7, over 100000 nM.

For the compound `CCCN(CCC)C(=O)C1=Cc2ccc(C(=O)Nc3ccncc3)cc2N=C(N)C1` [Example 3, 2-Amino-N4,N4-dipropyl-N8-(4-pyridyl)-3H-1-benzazepine-4,8-dicarboxamide], the EC50 at human TLR8 came out at 13 nM; on human TLR7 it was 70100 nM.

`CCCN(CCC)C(=O)C1=Cc2ccc(C(=O)Nc3ccccc3)cc2N=C(N)C1` [Example 4, 2-Amino-N8-phenyl-N4,N4-dipropyl-3H-1-benzazepine-4,8-dicarboxamide]: the EC50 at human TLR8 is 7 nM; on human TLR7 it was over 100000 nM.

For the compound `CCCN(CCC)C(=O)C1=Cc2ccc(C(=O)Nc3ccc(CN)nc3)cc2N=C(N)C1` [Example 5, 2-Amino-N8-[6-(aminomethyl)-3-pyridyl]-N4,N4-dipropyl-3H-1-benzazepine-4,8-dicarboxamide], the results for the EC50 on human TLR8 and at human TLR7 were 3 nM and over 100000 nM, respectively.

With `CCCN(CCC)C(=O)C1=Cc2ccc(C(=O)Nc3cncc(CO)c3)cc2N=C(N)C1` [Example 6, 2-Amino-N8-[5-(hydroxymethyl)-3-pyridyl]-N4,N4-dipropyl-3H-1-benzazepine-4,8-dicarboxamide], the concentration giving a half-maximal response (EC50) on human TLR8 is 8 nM; on human TLR7, over 100000 nM.

Take `CCCN(CCC)C(=O)C1=Cc2ccc(C(=O)Nc3ccc(CO)nc3)cc2N=C(N)C1` [Example 7, 2-Amino-N8-[6-(hydroxymethyl)-3-pyridyl]-N4,N4-dipropyl-3H-1-benzazepine-4,8-dicarboxamide]: the results for the EC50 on human TLR8 and at human TLR7 were 15 nM and over 100000 nM, respectively.

For the compound `CCCN(CCC)C(=O)C1=Cc2ccc(C(=O)Nc3cccc(S(C)(=O)=O)c3)cc2N=C(N)C1` [Example 8, 2-Amino-N8-(3-methylsulfonylphenyl)-N4,N4-dipropyl-3H-1-benzazepine-4,8-dicarboxamide], the half-maximal effective concentration (EC50) was determined as 10 nM at human TLR8 and 44000 nM at human TLR7.

On to `CCCN(CCC)C(=O)C1=Cc2ccc(C(=O)Nc3cncs3)cc2N=C(N)C1` [Example 9, 2-Amino-N4,N4-dipropyl-N8-thiazol-5-yl-3H-1-benzazepine-4,8-dicarboxamide], for which the 50% effective concentration (EC50) was 3 nM at human TLR8 and over 100000 nM on human TLR7.

Consider `CCCN(CCC)C(=O)C1=Cc2ccc(C(=O)Nc3ccc(Cl)cc3)cc2N=C(N)C1` [Example 10, 2-Amino-N8-(4-chlorophenyl)-N4,N4-dipropyl-3H-1-benzazepine-4,8-dicarboxamide], for which the EC50 on human TLR8 is 2 nM; on human TLR7, over 100000 nM.

Take `CCCN(CCC)C(=O)C1=Cc2ccc(C(=O)Nc3nccs3)cc2N=C(N)C1` [Example 11, 2-Amino-N4,N4-dipropyl-N8-thiazol-2-yl-3H-1-benzazepine-4,8-dicarboxamide]: the EC50 is 29 nM at human TLR8 and over 100000 nM on human TLR7.

Turning to `CCCN(CCC)C(=O)C1=Cc2ccc(C(=O)Nc3cncn3C)cc2N=C(N)C1` [Example 12, 2-Amino-N8-(3-methylimidazol-4-yl)-N4,N4-dipropyl-3H-1-benzazepine-4,8-dicarboxamide], the EC50 at human TLR8 was 4 nM; on human TLR7, over 100000 nM.

In the case of `CCCN(CCC)C(=O)C1=Cc2ccc(C(=O)Nc3ccc(F)cc3)cc2N=C(N)C1` [Example 13, 2-Amino-N8-(4-fluorophenyl)-N4,N4-dipropyl-3H-1-benzazepine-4,8-dicarboxamide], the EC50 at human TLR8 is 7 nM; on human TLR7, over 100000 nM.

Take `CCCN(CCC)C(=O)C1=Cc2ccc(C(=O)Nc3cccc(C)c3)cc2N=C(N)C1` [Example 14, 2-Amino-N8-(m-tolyl)-N4,N4-dipropyl-3H-1-benzazepine-4,8-dicarboxamide]: the EC50 is 1 nM on human TLR8 and over 100000 nM at human TLR7.
